From US4663457A, “1-cyclopropyl-6,7-dihalo-1,4-dihydro-4-oxo-1,8-naphthyridine -3-carboxylic acid and their esters, useful as intermediates for preparing the 7-amine substituted naphthyridines” (Warner-Lambert Company, priority 1985, dated 1987)
Values after ≈ are worked out from the molar mass of the structure shown. Where two headings read alike, the source gives them in different places.

What was measured:
Test in all cases: in vitro antibacterial activity, MIC by microtitration dilution method
Type in all cases: cell-based
[1] = test system: Staphylococcus aureus UC-76; conditions: UC76, read-out: Minimal Inhibitory Concentration MIC
Excerpt: (§1) The compounds of the invention display antibacterial activity when tested by the microtitration dilution method as described in Heifetz, et al, Antimicr. Agents & Chemoth., 6, 124 (1974), which is incorporated herein by reference.
(§2) By use of the above referenced method, the followed minimum inhibitory concentration values (MICs in μg/ml) were obtained for representative compounds of the invention.

[2] = test system: Proteus rettgeri M 1771; conditions: Providencia rettgeri, M1771, read-out: Minimal Inhibitory Concentration MIC
Excerpt: as §1, §2

[3] = test system: Streptococcus pneumoniae SV-1; conditions: SV1, read-out: Minimal Inhibitory Concentration MIC
Excerpt: as §1, §2

[4] = test system: Klebsiella pneumoniae MGH-2; conditions: MGH2, read-out: Minimal Inhibitory Concentration MIC
Excerpt: as §1, §2

[5] = test system: Pseudomonas aeruginosa UI-18; conditions: UI18, read-out: Minimal Inhibitory Concentration MIC
Excerpt: as §1, §2

[6] = test system: Enterobacter cloacae MA 2646; conditions: MA2646, read-out: Minimal Inhibitory Concentration MIC
Excerpt: as §1, §2

[7] = test system: Staphylococcus aureus H 228; conditions: H228, read-out: Minimal Inhibitory Concentration MIC
Excerpt: as §1, §2

[8] = test system: Escherichia coli Vogel; conditions: read-out: Minimal Inhibitory Concentration MIC
Excerpt: as §1, §2

[9] = test system: Streptococcus faecalis MGH-2; conditions: Enterococcus faecalis, MGH2, read-out: Minimal Inhibitory Concentration MIC
Excerpt: as §1, §2

[10] = test system: Streptococcus pyogenes C-203
Excerpt: Agents & Chemoth., 6, 124 (1974), which is incorporated herein by reference.

[11] = C203, in vitro, Streptococcus pyogenes C-203, read-out: Minimal Inhibitory Concentration MIC

MIC [10, 11] | SMILES | MIC [1] | MIC [2] | MIC [3] | MIC [4] | MIC [5] | MIC [6] | MIC [7] | MIC [8] | MIC [9] | MIC ([10]; Streptococcus pyogenes, C203, read-out: Minimal Inhibitory Concentration MIC)
1.6 mg/L (≈ 4.81 µM) | O=C(O)c1cn(C2CC2)c2nc(N3CCNCC3)c(F)cc2c1=O [Ex. 1, 1-Cyclopropyl-6-fluoro-1,4-dihydro-4-oxo-7-(1-piperazinyl)-1,8-naphthyridine-3-carboxylic acid] | 0.4 mg/L (≈ 1.2 µM) | 0.2 mg/L (≈ 0.602 µM) | 1.6 mg/L (≈ 4.81 µM) | 0.1 mg/L (≈ 0.301 µM) | 0.2 mg/L (≈ 0.602 µM) | 0.1 mg/L (≈ 0.301 µM) | 1.6 mg/L (≈ 4.81 µM) | ≤ 0.1 mg/L | 1.6 mg/L (≈ 4.81 µM) | –
– | CN1CCN(c2nc3c(cc2F)c(=O)c(C(=O)O)cn3C2CC2)CC1 [Ex. 2, 1-Cyclopropyl-6-fluoro-1,4-dihydro-7-(4-methyl-1-piperazinyl)-4-oxo-1,8-naphthyridine-3-carboxylic acid] | 0.1 mg/L (≈ 0.289 µM) | 0.4 mg/L (≈ 1.15 µM) | 6.3 mg/L (≈ 18.2 µM) | ≤ 0.1 mg/L | 0.4 mg/L (≈ 1.15 µM) | ≤ 0.1 mg/L | 0.4 mg/L (≈ 1.15 µM) | ≤ 0.1 mg/L | 0.8 mg/L (≈ 2.31 µM) | 3.1 mg/L (≈ 8.95 µM)
0.4 mg/L (≈ 1.14 µM) | O=C(O)c1cn(C2CC2)c2c(F)c(N3CCC(O)C3)c(F)cc2c1=O (stereo not shown) [Ex. 4, 1-Cyclopropyl-6,8-difluoro-1,4-dihydro-7-(3-hydroxy-1-pyrrolidinyl)-4-oxo-3-quinolinecarboxylic acid] | 0.013 mg/L (≈ 0.0371 µM) | 0.2 mg/L (≈ 0.571 µM) | 0.4 mg/L (≈ 1.14 µM) | 0.05 mg/L (≈ 0.143 µM) | 0.8 mg/L (≈ 2.28 µM) | 0.2 mg/L (≈ 0.571 µM) | 0.025 mg/L (≈ 0.0714 µM) | 0.1 mg/L (≈ 0.285 µM) | 0.1 mg/L (≈ 0.285 µM) | –

SMILES | MIC [10, 11] | MIC [1] | MIC [2] | MIC [3] | MIC [4] | MIC [5] | MIC [6] | MIC [7] | MIC [8] | MIC [9] | MIC ([10]; Streptococcus pyogenes, C203, read-out: Minimal Inhibitory Concentration MIC)
O=C(O)c1cn(C2CC2)c2c(F)c(N3CCNCC3)c(F)cc2c1=O [Ex. 3, 1-Cyclopropyl-6,8-difluoro-1,4-dihydro-4-oxo-7-(1-piperazinyl)-3-quinolinecarboxylic acid] | 0.4 mg/L (≈ 1.15 µM) | ≤ 0.1 mg/L | ≤ 0.1 mg/L | 0.8 mg/L (≈ 2.29 µM) | ≤ 0.1 mg/L | 0.2 mg/L (≈ 0.573 µM) | ≤ 0.1 mg/L | 0.4 mg/L (≈ 1.15 µM) | ≤ 0.1 mg/L | 0.4 mg/L (≈ 1.15 µM) | –
